Patent US10646565B2, “Treatment of alzheimer'S disease (AD) with an aluminum salt” (AFFIRIS AG, priority 2014, dated 2020)
Entries after “also recorded” stand apart in the source; their conditions may differ.

Key:
[1] = tested on: patients with early AD; assay: AFF006 clinical trial: patient disposition, reason for discontinuation; format: in vivo, human
Procedure: Data supporting the invention are derived from a randomized clinical trial in early AD patients. The study (AFF006; Eudract: 2009-016504-22) randomized early AD patients into 5 treatment arms. Patients of 2 study arms received either 1 mg aluminium or 2 mg aluminium. In total, 99 early AD patients were enrolled into the 2 study arms. Participation of a given patient lasted 18 months.
AFF006 was conducted as a randomized, placebo-controlled, parallel group, double-blind, multi-center phase II study and assessed the clinical and immunological activity as well as the safety and tolerability of repeated s.c. administrations of i.a. aluminium (different doses) in patients with early AD, as defined in the protocol. It was performed in a total of 6 countries: Austria, France, Germany, Slovakia, Czech Republic and Croatia.
The clinical trial comprised 10 regular outpatient visits and 6 telephone interviews. Up to four weeks before start of treatment, a screening visit (Visit 1) was performed to ensure suitability of the patients for the clinical trial and to establish the patients' baseline characteristics. Following screening, eligible patients were randomly allocated to the treatment groups. After randomization at week 0, patients received 6 injections with either 1 or 2 mg aluminium. Injections were applied s.c. by the investigator at weeks 0, 4, 8, 12, 40 and 65 (Visit 2, 3, 4, 5, 7 and 9).
adverse events (AEs) and serious adverse events (SAEs) (number of patients who withdrew due to AEs; reason for withdrawal)

[2] = tested on: patients with early AD; assay: AFF006 clinical trial: MRI volume-based morphometry of hippocampus; format: in vivo, human; details: 2 mg group of patients, FIG. 4
Excerpt: EMEA and FDA criteria recommend newer techniques, such as MRI, especially atrophy of entorhinal or (para-) hippocampal cortex. With the present invention, PET (Positron emission tomography)-MRI was applied. More specifically, volume of right hippocampus (important for learning and memory of material that is difficult to verbalise) is used according to the present invention as significant AD biomarker for treatment success.
Hippocampus (left and right), and whole lateral ventricle ROIs were delineated on an anatomical MRI template in order to generate the atlas for volumetric measures. The volumes of the hippocampus and lateral ventricles for each subject were determined using a fully-automated method which combines transformations derived from the nonlinear registration of the atlas labels to individual subject scans and subject-specific image information (Collins et al., J. Comput. Assist. Tomogr., 18: 192-205, 1994). Lateral ventricle and hippocampal segmentations that failed post-processing QC review were manually corrected. The total intracranial volume (TIV) was estimated from the brain mask generated during pre-processing and the average TIV (TIVavg) for each subject was determined by averaging the estimated TIV across visits. […]

[3] = tested on: patients with early AD; assay: AFF006 clinical trial: Quality of Life (QOL) caregiver; format: in vivo, human; details: 2 mg compared to 1 mg and other groups, over a period of 18 months, FIG. 5
Excerpt: Caregivers completed the measure as a questionnaire about their patients' QOL. The measure consisted of 13 items, rated on a 4 point scale, with 1 being poor and 4 being excellent. Outcomes are shown as the change over time using a least squares means from a mixed model.
QOL caregiver is a brief, 13-item questionnaire designed to specifically obtain a rating of the QOL of the patient from the caregiver's perspective. Questions cover relationships with friends and family, concerns about finances, physical condition, mood, and an overall assessment of life quality. All items are rated on a four-point scale, with 1 being poor and 4 being excellent. The total score is the sum of all items, which can range from 13 to 52. QOL caregiver values are presented here as the change from baseline. Outcomes were measured at Visits 1, 6, 8, and 10.

[4] = tested on: respective immunizing peptide; assay: ELISA titer of vaccination induced IgG Abs against immunizing peptide in Tg2576-mice; format: in vivo; details: 6x s.c. at 4-week intervals, plasma at sacrification, background 1/100, FIG. 6A
Procedure: Alum doses used were equivalent to 2 mg/ml. Vaccination induced Abs were measured in plasma samples taken at sacrification (SeqID 1 (n=10), […], KLH-Alum (n=10) and Alum only (n=8)). Samples were analyzed for their concentration of IgG Abs against specific peptides. Values depicted are the titer calculated as OD max/2 (at 405 nm) plus SEM. IgG response towards the respective immunizing peptide (SeqID 1: anti SeqID 1; SeqID 2: anti SeqID 2, KLH-Alum: anti KLH, Alum: anti AD02); B) Reactivity towards human Aβ1-40/42 after immunization. […] Background for this assay was set to 1/100, indicated by black lines and an asterisk in A+B.
Substrates used include human (BACHEM, CH) Aβ1-40/42 (at 5 μg/ml), KLH (1 μg/ml) and peptide-Bovine serum albumin (BSA) conjugates (SeqID 1 and SeqID 2, 1 μM). Optical density (OD) was measured at 405 nm using a micro-well reader (Tecan, CH). ODmax/2 was calculated.
To test the immunogenicity of two Aβ targeting vaccines SeqID 1-KLH-Alum and SeqID 2-KLH Alum in comparison to KLH-Alum and Alum (Aluminium-oxyhydroxide) only, Tg2576-mice were injected 6×, s.c., at 4-week intervals with either conjugate-vaccine containing 30 μg net peptide, equivalent doses of KLH formulated with Alum or Alum only. […] Vaccination induced Abs were measured in plasma samples taken at sacrification (SeqID 1 (n=10), SeqID 2 (n=8), KLH-Alum (n=10) and Alum only (n=8)).

[5] = tested on: human Aβ1-40/42; assay: ELISA reactivity of vaccination induced Abs towards human Aβ1-40/42 in Tg2576-mice; format: in vivo; details: 6x s.c. at 4-week intervals, plasma at sacrification, background 1/100, FIG. 6B
Procedure: Alum doses used were equivalent to 2 mg/ml. Vaccination induced Abs were measured in plasma samples taken at sacrification (SeqID 1 (n=10), SeqID (n=8), KLH-Alum (n=10) and Alum only (n=8)). Samples were analyzed for their concentration of IgG Abs against specific peptides. Values depicted are the titer calculated as OD max/2 (at 405 nm) plus SEM. […] Background for this assay was set to 1/100, indicated by black lines and an asterisk in A+B.

[6] = tested on: amyloid deposits; assay: Cerebral amyloid load by immunofluorescence (mAb 3A5) in Tg2576 mice; format: in vivo; details: 6 monthly s.c. injections, sacrificed at 14 months of age
[7] = target: BSA (Bos taurus, UniProt P02769); details: pH 7.4; cited from earlier work
Sequence of BSA (P02769 25-607): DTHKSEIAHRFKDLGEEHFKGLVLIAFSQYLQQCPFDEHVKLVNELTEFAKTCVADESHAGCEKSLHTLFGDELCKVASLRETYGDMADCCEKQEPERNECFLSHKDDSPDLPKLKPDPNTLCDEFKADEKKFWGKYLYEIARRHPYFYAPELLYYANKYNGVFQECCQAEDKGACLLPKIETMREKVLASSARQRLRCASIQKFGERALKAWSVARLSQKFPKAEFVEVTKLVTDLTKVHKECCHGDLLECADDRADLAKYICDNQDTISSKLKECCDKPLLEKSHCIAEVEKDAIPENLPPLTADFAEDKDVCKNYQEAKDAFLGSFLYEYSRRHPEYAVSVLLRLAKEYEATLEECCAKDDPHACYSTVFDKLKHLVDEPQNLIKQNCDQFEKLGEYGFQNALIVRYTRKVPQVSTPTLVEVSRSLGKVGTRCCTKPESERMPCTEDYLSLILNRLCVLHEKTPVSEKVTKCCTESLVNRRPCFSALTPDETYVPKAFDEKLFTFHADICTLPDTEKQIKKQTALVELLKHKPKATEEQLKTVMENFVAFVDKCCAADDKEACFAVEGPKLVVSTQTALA

[8] = tested on: Tg2576 mice; assay: Contextual fear conditioning (CFC) in Tg2576 mice; details: 6 monthly s.c. injections, Alum equivalent to 2 mg/ml

Substance: aluminium oxyhydroxide
- Reason for Discontinuation from the Study: Death: subjects % ([1]; 1 mg s.c., N = 48): (4.2%)
- Reason for Discontinuation from the Study: Death: subjects n ([1]; 1 mg s.c., N = 48): 2
- Reason for Discontinuation from the Study: Death: subjects % ([1]; 2 mg s.c., N = 51): (0.0%)
- Reason for Discontinuation from the Study: Death: subjects n ([1]; 2 mg s.c., N = 51): 0
- MRI data (volume of right hippocampus) [2]: statistically significant disease modifying effect
- QOL of the patient rated by caregivers (QOL-AD) [3]: significantly improved
- IgG titer towards the peptide used for immunization (ODmax/2) [4]: did not elicit signals above background
- Abs reactivity towards human Aβ1-40/42 [5]: did not elicit signals above background; also recorded: do not show reactivity above background
- cerebral amyloid load (relative brain area covered by amyloid deposits) ([6]; IF-staining mAb 3A5, FIG. 8, listed as Alum): did not significantly alter amyloid deposition; also recorded: slight but insignificant reduction in Aβ deposition
- cerebral amyloid load (relative brain area covered by amyloid deposits) ([6]; IF-staining mAb 3A5, FIG. 8, listed as aluminium-oxyhydroxide): without significantly changing cerebral Aβ levels
- maximal binding capacity to BSA (pI 4.9) [7]: 2.2±0.1 mg protein/mg aluminum
- contextual memory and learning (CFC, % of time freezing) ([8]; FIG. 7, listed as Alum): showed similar effects as detectable with Aβ targeting vaccines
- contextual memory and learning (CFC, % of time freezing) ([8]; FIG. 7, listed as aluminium-oxyhydroxide): lower cognitive decline significantly
